Here are results for 14 molecules from ChEMBL document CHEMBL4819056 (Bioorg Med Chem Lett, 2021).

Assay [1] addresses T1, Aldehyde dehydrogenase, mitochondrial (Homo sapiens, UniProt P05091).
T1 sequence (P05091 whole entry): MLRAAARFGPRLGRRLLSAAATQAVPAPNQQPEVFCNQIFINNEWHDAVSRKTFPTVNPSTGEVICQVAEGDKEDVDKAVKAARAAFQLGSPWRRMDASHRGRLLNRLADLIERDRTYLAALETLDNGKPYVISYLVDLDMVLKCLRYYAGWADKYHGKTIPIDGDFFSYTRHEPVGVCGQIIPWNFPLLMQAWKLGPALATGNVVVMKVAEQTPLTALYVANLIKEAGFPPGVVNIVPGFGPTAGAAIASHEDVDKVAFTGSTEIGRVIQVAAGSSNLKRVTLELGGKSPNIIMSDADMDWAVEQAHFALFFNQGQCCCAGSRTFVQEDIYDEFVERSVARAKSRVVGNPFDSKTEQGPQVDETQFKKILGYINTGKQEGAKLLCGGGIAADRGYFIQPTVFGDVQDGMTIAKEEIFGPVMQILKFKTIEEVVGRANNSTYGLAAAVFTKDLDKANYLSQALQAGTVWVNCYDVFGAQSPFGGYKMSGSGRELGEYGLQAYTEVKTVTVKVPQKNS
Briefly: Inhibition of ALDH2 (unknown origin). The format is single protein.

The target in assay [2] is T2, Aldehyde dehydrogenase 1A1 (Homo sapiens, UniProt P00352).
T2 sequence (P00352 whole entry): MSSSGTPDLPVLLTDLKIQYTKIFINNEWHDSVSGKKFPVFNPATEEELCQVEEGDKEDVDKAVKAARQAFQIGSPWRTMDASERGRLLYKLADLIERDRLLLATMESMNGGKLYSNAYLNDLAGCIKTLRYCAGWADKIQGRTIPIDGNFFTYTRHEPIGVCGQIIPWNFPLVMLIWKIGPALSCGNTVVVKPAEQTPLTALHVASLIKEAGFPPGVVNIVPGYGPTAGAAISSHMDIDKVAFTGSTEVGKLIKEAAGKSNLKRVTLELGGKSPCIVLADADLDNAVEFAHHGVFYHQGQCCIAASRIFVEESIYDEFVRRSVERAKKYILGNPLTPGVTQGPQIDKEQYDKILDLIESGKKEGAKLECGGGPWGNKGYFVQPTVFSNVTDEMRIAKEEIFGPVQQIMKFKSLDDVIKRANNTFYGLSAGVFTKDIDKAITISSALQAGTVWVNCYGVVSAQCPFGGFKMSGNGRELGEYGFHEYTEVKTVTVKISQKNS
Nature of the assay: Inhibition of ALDH1A1 (unknown origin). The format is single protein.

Assay [3] deals with T3, Aldehyde dehydrogenase 1A1 (Homo sapiens) (UniProt P00352).
T3 sequence (whole entry): T2 sequence (P00352 whole entry)
Nature of the assay: Inhibition of ALDH1A1 (unknown origin) in presence of dithiothreitol.

The structures appear in SMILES notation. Activity calls are given as the source filed them. No cut-off for these calls is given here. Bounds are passed on as bounds.

For `Cl.Cl.NCCSSCCN` [CYSTAMINE DIHYDROCHLORIDE], the values for the IC50 entry in assay [1] and in assay [2] (read-out: IC50) were “Not Active” and > 100 µM, respectively.
Take `CC(C)CN(CC(C)C)C(=S)SSC(=S)N(CC(C)C)CC(C)C`: the IC50 entry in assay [1] was “Not Active”; in assay [2] (read-out: IC50), > 100 µM.
Take `S=C(SSC(=S)N1CCCCC1)N1CCCCC1` [BIS(PIPERIDINYLTHIOCARBONYL)DISULFIDE]: the IC50 in assay [1] (read-out: IC50) amounted to 1.51 µM; in assay [2] (read-out: IC50), 0.05 µM.
As for `CCN(Cc1ccc(O)cc1)C(=S)SSC(=S)N(CC)Cc1ccc(O)cc1`, the IC50 in assay [1] (read-out: IC50) stood at 10.9 µM; in assay [2] (read-out: IC50), 0.21 µM. Besides, the inhibition result in assay [3] is “inactive”.
On to `CCN(Cc1ccc(F)cc1)C(=S)SSC(=S)N(CC)Cc1ccc(F)cc1`, for which, in assay [1], the IC50 entry is “Not Active”. Further, the inhibition result in assay [3] was “inactive”.
For `CCN(Cc1ccccc1)C(=S)SSC(=S)N(CC)Cc1ccccc1`, the IC50 result in assay [1] was “Not Active”; in assay [2] (read-out: IC50), 0.27 µM. Also, the inhibition result in assay [3] is “inactive”.
In the case of `CCN(CC)C(=S)SSC(=S)N(CC)CC`, in assay [3], the inhibition result is “inactive”.
Turning to `CCCCN(CCCC)C(=S)SSC(=S)N(CCCC)CCCC`, the IC50 in assay [1] (read-out: IC50) amounted to 72.6 µM; in assay [2] (read-out: IC50), 5.61 µM.
Consider `S=C(SSC(=S)N1CCOCC1)N1CCOCC1`, for which the values for the concentration for half-maximal inhibition (IC50) in assay [1] (read-out: IC50) and in assay [2] (read-out: IC50) were 1.43 µM and 0.04 µM, respectively.
`CCN(Cc1ccc(C(=O)O)cc1)C(=S)SSC(=S)N(CC)Cc1ccc(C(=O)O)cc1`: the IC50 turned out to be 99.4 µM in assay [1] (read-out: IC50) and 2.95 µM in assay [2] (read-out: IC50).
In the case of `CC(=O)NC(CS)C(=O)O` (single isomer, unassigned), the IC50 result in assay [1] and in assay [2] was “Not Active” in each case.
As for `Cl.NCCS` [CYSTEAMINE HYDROCHLORIDE], the IC50 result in assay [1] and in assay [2] was “Not Active” in each case.
For the molecule `CC(C)N(C(=S)SSC(=S)N(C)C)C(C)C`, the concentration for half-maximal inhibition (IC50) in assay [1] (read-out: IC50) is > 100 µM; in assay [2] (read-out: IC50), 2.85 µM.
`S=C(SSC(=S)N(Cc1ccccc1)Cc1ccccc1)N(Cc1ccccc1)Cc1ccccc1` [BIS(DIBENZYLAMINETHIOCARBONYL)DISULFIDE]: the IC50 entry in assay [1] is “Not Active”; in assay [2] (read-out: IC50) it was > 100 µM.
